Test results from PubChem BioAssay AID1259411 (Chemical Carcinogenesis Research Information System (CCRIS), 2018).
Calls of active or inactive are those of the source. How the calls were made is not given here.

Test system: rodent carcinogenicity bioassays, tumor incidence
Assay: CCRIS carcinogenicity studies
Outline: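 NCI-built, expert-reviewed records of carcinogenicity and related test outcomes (mutagenicity, tumor promotion/inhibition) compiled from published and report sources, historical span 1985-2011, not updated.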

For C=CCl, the carcinogen call (Species: HAMSTER, Strain/Sex: SYRIAN/MALE, Route: INHALATION, Dose: 0, 50, 250, 500, 2500, 6000, 10000 PPM 4 HR/D, 5 D/WK FOR (STUDY DURATION: 109 WK), Dose: 0, 50, 250, 500, 2500, 6000, 10000 PPM 4 HR/D, 5 D/WK FOR (STUDY DURATION: 109 WK), Tumor Site: Type of Lesion: INTEGUMENTARY SYSTEM (SKIN): EPITHELIOMA, FORESTOMACH: PAPILLOMA OR ACANTHOMA, LIVER: ANGIOMA OR ANGIOSARCOMA, Tumor Site: Type of Lesion: INTEGUMENTARY SYSTEM (SKIN): EPITHELIOMA, FORESTOMACH: PAPILLOMA OR ACANTHOMA, LIVER: ANGIOMA OR ANGIOSARCOMA) was “active; positive”, the carcinogen call (Species: HAMSTER, Strain/Sex: SYRIAN, Route: INHALATION, Tumor Site: Type of Lesion: LIVER) was “active; positive” and the carcinogen call (Species: HUMAN, Route: INHALATION, Tumor Site: Type of Lesion: LIVER, BRAIN, LUNG, Tumor Site: Type of Lesion: LIVER, BRAIN, LUNG) was “active; positive”. The carcinogen call (Species: MOUSE, Strain/Sex: ICR/FEMALE, Route: INHALATION, Dose: 0, 50, 500, 5000, 50000 PPM ONCE FOR 1 HR (STUDY DURATION: 18 MO), Dose: 0, 50, 500, 5000, 50000 PPM ONCE FOR 1 HR (STUDY DURATION: 18 MO), Tumor Site: Type of Lesion: LUNG: ALVEOLAR/BRONCHIOLAR ADENOMA OR CARCINOMA) was “active; positive”, the carcinogen call (Species: MOUSE, Strain/Sex: ICR/MALE, Route: INHALATION, Dose: 0, 50, 500, 5000, 50000 PPM ONCE FOR 1 HR (STUDY DURATION: 18 MO), Dose: 0, 50, 500, 5000, 50000 PPM ONCE FOR 1 HR (STUDY DURATION: 18 MO), Tumor Site: Type of Lesion: LUNG: ALVEOLAR/BRONCHIOLAR ADENOMA OR CARCINOMA) was “active; positive” and the carcinogen call (Species: MOUSE, Strain/Sex: SWISS/MALE,FEMALE, Route: INHALATION, Dose: 0, 50, 250, 500, 2500, 6000, 10000 PPM 4 HR/D, 5 D/WK FOR 30 WK (STUDY DURATION: 81 WK), Dose: 0, 50, 250, 500, 2500, 6000, 10000 PPM 4 HR/D, 5 D/WK FOR 30 WK (STUDY DURATION: 81 WK), Tumor Site: Type of Lesion: LIVER: ANGIOMA, ANGIOSARCOMA, LUNG: TUMOR (NOS), MAMMARY GLAND: CARCINOMA, Tumor Site: Type of Lesion: LIVER: ANGIOMA, ANGIOSARCOMA, LUNG: TUMOR (NOS), MAMMARY GLAND: CARCINOMA) was “active; positive”. The carcinogen call (Species: MOUSE, Strain/Sex: SWISS, Route: INHALATION, Tumor Site: Type of Lesion: LIVER, LUNG, MAMMARY GLAND, Tumor Site: Type of Lesion: LIVER, LUNG, MAMMARY GLAND) was “active; positive”, the carcinogen call (Species: RAT, Route: INHALATION, Tumor Site: Type of Lesion: LIVER, LUNG, KIDNEY, EAR (ZYMBAL GLAND), Tumor Site: Type of Lesion: LIVER, LUNG, KIDNEY, EAR (ZYMBAL GLAND)) was “active; positive” and the carcinogen call (Species: RAT, Strain/Sex: SPRAGUE-DAWLEY/FEMALE, Route: GAVAGE, Dose: 0, 0.03, 0.3, 1, 3.33, 16.65, 50 MG/KG BW IN OLIVE OIL 1/D 4-5 D/WK FOR 52-59 WK (STUDY DURATION: LIFETIME), Dose: 0, 0.03, 0.3, 1, 3.33, 16.65, 50 MG/KG BW IN OLIVE OIL 1/D 4-5 D/WK FOR 52-59 WK (STUDY DURATION: LIFETIME), Tumor Site: Type of Lesion: [BRAIN WAS ONLY SITE EVALUATED]) was “inactive; negative”. The carcinogen call (Species: RAT, Strain/Sex: SPRAGUE-DAWLEY/FEMALE, Route: INHALATION, Dose: 0, 50, 250, 500, 2500, 6000, 10000 PPM IN AIR 4 HR/D 5 D/WK FOR 17 WK (STUDY DURATION: LIFETIME), Dose: 0, 50, 250, 500, 2500, 6000, 10000 PPM IN AIR 4 HR/D 5 D/WK FOR 17 WK (STUDY DURATION: LIFETIME), Tumor Site: Type of Lesion: BRAIN: NEUROBLASTOMA [ONLY SITE EVALUATED]) was “active; positive”, the carcinogen call (Species: RAT, Strain/Sex: SPRAGUE-DAWLEY/FEMALE, Route: INHALATION, Dose: 0, 2500 PPM 4 HR/D 5 D/WK FOR 7 WK THEN 7 HR/D 5 D/WK FOR 8 WK ADMINISTERED TO RAT EMBRYOS BEGINNING ON 12TH DAY OF GEST, Tumor Site: Type of Lesion: LIVER: HEPATOMA, ANGIOSARCOMA, BRAIN: NEUROBLASTOMA) was “active; positive” and the carcinogen call (Species: RAT, Strain/Sex: SPRAGUE-DAWLEY/FEMALE, Route: INHALATION, Dose: 0, 2500 PPM 4 HR/D 5 D/WK FOR 7 WK THEN 7 HR/D 5 D/WK FOR 69 WK ADMINISTERED TO BREEDER RATS (STUDY DURATION: 76 WK), Tumor Site: Type of Lesion: BRAIN: NEUROBLASTOMA, LIVER, HEPATOCARCINOMA, ANGIOSARCOMA, Tumor Site: Type of Lesion: BRAIN: NEUROBLASTOMA, LIVER, HEPATOCARCINOMA, ANGIOSARCOMA) was “active; positive”. The carcinogen call (Species: RAT, Strain/Sex: SPRAGUE-DAWLEY/FEMALE, Route: INHALATION, Dose: 0, 2500 PPM 4 HR/D 5 D/WK FOR 7 WK THEN 7 HR/D 5 D/WK FOR 69 WK ADMINISTERED TO RAT EMBRYOS BEGINNING ON 12TH DAY OF GES, Tumor Site: Type of Lesion: BRAIN: NEUROBLASTOMA, LIVER, HEPATOCARCINOMA, ANGIOSARCOMA, Tumor Site: Type of Lesion: BRAIN: NEUROBLASTOMA, LIVER, HEPATOCARCINOMA, ANGIOSARCOMA) was “active; positive” and the carcinogen call (Species: RAT, Strain/Sex: SPRAGUE-DAWLEY/FEMALE, Route: INHALATION, Dose: 0, 6000, 10000 PPM IN AIR 1 HR/D 4 D/WK FOR 25 WK (STUDY DURATION: LIFETIME), Dose: 0, 6000, 10000 PPM IN AIR 1 HR/D 4 D/WK FOR 25 WK (STUDY DURATION: LIFETIME), Tumor Site: Type of Lesion: [BRAIN WAS ONLY SITE EVALUATED]) was “inactive; negative”.
